ChEMBL document CHEMBL3393019, “Synthesis and evaluation of NS5A inhibitors containing diverse heteroaromatic cores” (Bioorg Med Chem Lett, 2015)

Assays:
Hepatitis C virus [1] = test: Antiviral activity against Hepatitis C virus genotype 1b infected in human Huh-5.2 cells assessed as decrease in HCV replicon RNA replication after 4 days by luciferase assay; type: functional, cell-based, Hepacivirus hominis; conditions: Huh-5-2, 96 h
Hepatitis C virus [2] = test: Antiviral activity against Hepatitis C virus genotype 1a infected in W11.8 cells assessed as decrease in NS5A expression in replicon cell after 4 days by luminescence based ELISA; type: functional, Hepacivirus hominis; conditions: subtype 1a, W11.8, 96 h
[3] = Cytotoxicity against human Huh7ET cells by [3H]thymidine incorporation assay; type: cell-based, Huh-7
[4] = Half life in iv dosed rat; type: ADME, organism-based; conditions: in vivo
[5] = Cmax in po dosed rat; type: ADME, organism-based; design: route oral; conditions: in vivo
[6] = AUC (0 to 8 hrs) in po dosed rat; type: ADME, organism-based; design: time < 8 hr, route oral; conditions: plasma
[7] = Half life in po dosed rat; type: ADME, organism-based; conditions: in vivo
[8] = Clearance in iv dosed rat; type: ADME, organism-based; conditions: in vivo
[9] = Oral bioavailability in rat; type: ADME, organism-based; conditions: in vivo
[10] = Volume of distribution at steady state in iv dosed rat; type: ADME, organism-based; conditions: in vivo, read-out: Vdss

Question: Which EC50 (Hepatitis C virus [1]) does the source give for COC(=O)N[C@H](C(=O)N1C[C@@H](C)C[C@H]1c1nc2cc(-c3ccc(-c4ccc5oc([C@@H]6C[C@H](C)CN6C(=O)[C@@H](NC(=O)OC)C(C)C)nc5c4)cc3)ccc2o1)C(C)C here?
Answer: 223 nM

Question: And the EC50 (Hepatitis C virus [2])?
Answer: > 2000 nM

Question: What about the CC50 [3] of the same molecule?
Answer: 7000 nM

Question: What does the source list for COC(=O)N[C@H](C(=O)N1C[C@@H](C)C[C@H]1c1nc2cc(-c3ccc(-c4ccc5oc([C@@H]6C[C@H](C)CN6C(=O)[C@@H](NC(=O)OC)C(C)C)nc5c4)cc3)ccc2[nH]1)C(C)C?
Answer: EC50 (Hepatitis C virus [1]): 0.017 nM; EC50 (Hepatitis C virus [2]): 58 nM; CC50 [3]: > 20000 nM

Question: For COC(=O)N[C@H](C(=O)N1C[C@@H](C)C[C@H]1c1nc2cc(-c3cc4sc(-c5ccc6oc([C@@H]7C[C@H](C)CN7C(=O)[C@@H](NC(=O)OC)C(C)C)nc6c5)cc4s3)ccc2o1)C(C)C, which EC50 (Hepatitis C virus [1]) is on record?
Answer: 23 nM

Question: And the EC50 (Hepatitis C virus [2])?
Answer: > 2000 nM

Question: And the CC50 [3]?
Answer: > 20000 nM

Question: What does the source list for COC(=O)N[C@H](C(=O)N1C[C@@H](C)C[C@H]1c1nc2cc(-c3cc4sc(-c5ccc6oc([C@@H]7C[C@H](C)CN7C(=O)[C@@H](NC(=O)OC)C(C)C)nc6c5)cc4s3)ccc2[nH]1)C(C)C?
Answer: EC50 (Hepatitis C virus [1]): 0.003 nM; EC50 (Hepatitis C virus [2]): 0.032 nM; CC50 [3]: > 20000 nM

Question: With COC(=O)N[C@H](C(=O)N1C[C@@H](C)C[C@H]1c1nc(-c2ccc(-c3ccc(-c4ccc5oc([C@@H]6C[C@H](C)CN6C(=O)[C@@H](NC(=O)OC)C(C)C)nc5c4)cc3)cc2)c[nH]1)C(C)C as the molecule, how does the EC50 (Hepatitis C virus [1]) read?
Answer: 0.023 nM

Question: And the EC50 (Hepatitis C virus [2])?
Answer: 11 nM

Question: What about the CC50 [3] of the same molecule?
Answer: > 20000 nM

Question: For COC(=O)N[C@H](C(=O)N1C[C@@H](C)C[C@H]1c1nc2ccc(-c3ccc(-c4ccc5nc([C@@H]6C[C@H](C)CN6C(=O)[C@@H](NC(=O)OC)C(C)C)oc5c4)cc3)cc2o1)C(C)C, which EC50 (Hepatitis C virus [1]) is on record?
Answer: 0.006 nM

Question: And the EC50 (Hepatitis C virus [2])?
Answer: 630 nM

Question: What about the CC50 [3] of the same molecule?
Answer: 7000 nM

Question: Which EC50 (Hepatitis C virus [1]) does the source give for COC(=O)N[C@H](C(=O)N1C[C@@H](C)C[C@H]1c1nc2cc(-c3ccc(-c4ccc5nc([C@@H]6C[C@H](C)CN6C(=O)[C@@H](NC(=O)OC)C(C)C)oc5c4)cc3)ccc2[nH]1)C(C)C here?
Answer: 0.008 nM

Question: And the EC50 (Hepatitis C virus [2])?
Answer: 1.8 nM

Question: What about the CC50 [3] of the same molecule?
Answer: > 20000 nM

Question: Which EC50 (Hepatitis C virus [1]) does the source give for COC(=O)N[C@H](C(=O)N1C[C@@H](C)C[C@H]1c1nc2ccc(-c3cc4sc(-c5ccc6nc([C@@H]7C[C@H](C)CN7C(=O)[C@@H](NC(=O)OC)C(C)C)oc6c5)cc4s3)cc2o1)C(C)C here?
Answer: 0.019 nM

Question: What about the EC50 (Hepatitis C virus [2]) of the same molecule?
Answer: 43 nM

Question: What about the CC50 [3] of the same molecule?
Answer: > 20000 nM

Question: What does the source list for COC(=O)N[C@H](C(=O)N1C[C@@H](C)C[C@H]1c1nc2cc(-c3cc4sc(-c5ccc6nc([C@@H]7C[C@H](C)CN7C(=O)[C@@H](NC(=O)OC)C(C)C)oc6c5)cc4s3)ccc2[nH]1)C(C)C?
Answer: half-life [4]: 5.6 h; Cmax [5]: 0.01 ng/mL; AUC(0-t) at 8 h [6]: 376 ng·h/mL; half-life [7]: 14.8 h; clearance [8]: 6.2 mL/min/kg; bioavailability [9]: 7.3%; Vd [10]: 2.8 L/kg; EC50 (Hepatitis C virus [1]): 0.004 nM; EC50 (Hepatitis C virus [2]): 0.029 nM; CC50 [3]: > 20000 nM

Question: What does the source list for COC(=O)N[C@H](C(=O)N1C[C@@H](C)C[C@H]1c1nc(-c2ccc(-c3ccc(-c4ccc5nc([C@@H]6C[C@H](C)CN6C(=O)[C@@H](NC(=O)OC)C(C)C)oc5c4)cc3)cc2)c[nH]1)C(C)C?
Answer: EC50 (Hepatitis C virus [1]): 0.005 nM; EC50 (Hepatitis C virus [2]): 0.164 nM; CC50 [3]: > 20000 nM

Question: With COC(=O)N[C@H](C(=O)N1C[C@@H](C)C[C@H]1c1ncc(-c2cc3sc(-c4ccc5[nH]c([C@@H]6C[C@H](C)CN6C(=O)[C@@H](NC(=O)OC)C(C)C)nc5c4)cc3s2)[nH]1)C(C)C as the molecule, how does the EC50 (Hepatitis C virus [1]) read?
Answer: 0.016 nM

Question: And the EC50 (Hepatitis C virus [2])?
Answer: 0.021 nM

Question: What about the CC50 [3] of the same molecule?
Answer: > 20000 nM

Question: What does the source list for COC(=O)N[C@H](C(=O)N1C[C@@H](C)C[C@H]1c1ncc(-c2ccc(-c3cc4sc(-c5ccc6[nH]c([C@@H]7C[C@H](C)CN7C(=O)[C@@H](NC(=O)OC)C(C)C)nc6c5)cc4s3)cc2)[nH]1)C(C)C?
Answer: half-life [4]: 3.5 h; Cmax [5]: 0.01 ng/mL; AUC(0-t) at 8 h [6]: 281 ng·h/mL; half-life [7]: 17.2 h; clearance [8]: 8.1 mL/min/kg; bioavailability [9]: 8.4%; Vd [10]: 1.6 L/kg; EC50 (Hepatitis C virus [1]): 0.006 nM; EC50 (Hepatitis C virus [2]): 0.008 nM; CC50 [3]: > 20000 nM

Question: With COC(=O)N[C@H](C(=O)N1C[C@@H](C)C[C@H]1c1nc2cc(-c3cc4sc(-c5ccc6nc([C@@H]7C[C@H](C)CN7C(=O)[C@@H](NC(=O)OC)C(C)C)[nH]c6c5)cc4s3)ccc2[nH]1)C(C)C as the molecule, how does the EC50 (Hepatitis C virus [1]) read?
Answer: 0.009 nM

Question: What about the EC50 (Hepatitis C virus [2]) of the same molecule?
Answer: 0.004 nM

Question: And the CC50 [3]?
Answer: > 20000 nM

Question: What does the source list for COC(=O)N[C@H](C(=O)N1C[C@@H](C)C[C@H]1c1nc2cc(-c3cc4sc(-c5ccc6nc([C@@H]7C[C@H](C)CN7C(=O)[C@@H](NC(=O)OC)C(C)C)n(C)c6c5)cc4s3)ccc2[nH]1)C(C)C?
Answer: EC50 (Hepatitis C virus [1]): 0.004 nM; EC50 (Hepatitis C virus [2]): 0.024 nM; CC50 [3]: > 20000 nM

Question: Which results are given for COC(=O)N[C@H](C(=O)N1C[C@@H](C)C[C@H]1c1nc2cc(-c3cc4sc(-c5cc6nc([C@@H]7C[C@H](C)CN7C(=O)[C@@H](NC(=O)OC)C(C)C)[nH]c6s5)cc4s3)ccc2[nH]1)C(C)C?
Answer: EC50 (Hepatitis C virus [1]): 0.004 nM; EC50 (Hepatitis C virus [2]): 0.011 nM; CC50 [3]: > 20000 nM

Question: With COC(=O)N[C@H](C(=O)N1C[C@@H](C)C[C@H]1c1cc2cc(-c3cc4sc(-c5ccc6[nH]c([C@@H]7C[C@H](C)CN7C(=O)[C@@H](NC(=O)OC)C(C)C)nc6c5)cc4s3)ccc2[nH]1)C(C)C as the molecule, how does the EC50 (Hepatitis C virus [1]) read?
Answer: 0.006 nM

Question: And the EC50 (Hepatitis C virus [2])?
Answer: 1.3 nM

Question: What about the CC50 [3] of the same molecule?
Answer: > 20000 nM

Question: With COC(=O)N[C@H](C(=O)N1C[C@@H](C)C[C@H]1c1cc2ccc(-c3cc4sc(-c5ccc6[nH]c([C@@H]7C[C@H](C)CN7C(=O)[C@@H](NC(=O)OC)C(C)C)nc6c5)cc4s3)cc2[nH]1)C(C)C as the molecule, how does the half-life [4] read?
Answer: 4.6 h

Question: What about the Cmax [5] of the same molecule?
Answer: 0.02 ng/mL

Question: What about the AUC(0-t) at 8 h [6] of the same molecule?
Answer: 659 ng·h/mL

Question: What about the half-life [7] of the same molecule?
Answer: 16.6 h

Question: And the clearance [8]?
Answer: 4.7 mL/min/kg

Question: And the bioavailability [9]?
Answer: 8.4%

Question: What about the Vd [10] of the same molecule?
Answer: 1.6 L/kg

Question: And the EC50 (Hepatitis C virus [1])?
Answer: 0.006 nM

Question: What about the EC50 (Hepatitis C virus [2]) of the same molecule?
Answer: 0.02 nM

Question: What about the CC50 [3] of the same molecule?
Answer: > 20000 nM

Question: Which EC50 (Hepatitis C virus [1]) does the source give for COC(=O)N[C@H](C(=O)N1C[C@@H](C)C[C@H]1c1nc2cc(-c3cc4sc(-c5ccc6sc([C@@H]7C[C@H](C)CN7C(=O)[C@@H](NC(=O)OC)C(C)C)nc6c5)cc4s3)ccc2[nH]1)C(C)C here?
Answer: 0.025 nM

Question: What about the EC50 (Hepatitis C virus [2]) of the same molecule?
Answer: 6.8 nM

Question: What about the CC50 [3] of the same molecule?
Answer: > 20000 nM

Question: What does the source list for COC(=O)N[C@H](C(=O)N1C[C@@H](C)C[C@H]1c1cn2cc(-c3cc4sc(-c5ccc6[nH]c([C@@H]7C[C@H](C)CN7C(=O)[C@@H](NC(=O)OC)C(C)C)nc6c5)cc4s3)ccc2n1)C(C)C?
Answer: EC50 (Hepatitis C virus [1]): 0.004 nM; EC50 (Hepatitis C virus [2]): 0.006 nM; CC50 [3]: 8000 nM
